Active and inactive are the calls of the source. No cut-off for these calls is given here.
Tests used:
[1] = biological target: Sigma non-opioid intracellular receptor 1 (Cavia porcellus, UniProt Q60492)
D(3) dopamine receptor [2] = biological target: T1, D(3) dopamine receptor (Homo sapiens, UniProt P35462); assay: biochemical
D(2) dopamine receptor [3] = biological target: T2, D(2) dopamine receptor (Homo sapiens, UniProt P14416); assay: biochemical
D(4) dopamine receptor = biological target: T3, D(4) dopamine receptor (Homo sapiens, UniProt P21917); assay: biochemical
T3 sequence (P21917 whole entry): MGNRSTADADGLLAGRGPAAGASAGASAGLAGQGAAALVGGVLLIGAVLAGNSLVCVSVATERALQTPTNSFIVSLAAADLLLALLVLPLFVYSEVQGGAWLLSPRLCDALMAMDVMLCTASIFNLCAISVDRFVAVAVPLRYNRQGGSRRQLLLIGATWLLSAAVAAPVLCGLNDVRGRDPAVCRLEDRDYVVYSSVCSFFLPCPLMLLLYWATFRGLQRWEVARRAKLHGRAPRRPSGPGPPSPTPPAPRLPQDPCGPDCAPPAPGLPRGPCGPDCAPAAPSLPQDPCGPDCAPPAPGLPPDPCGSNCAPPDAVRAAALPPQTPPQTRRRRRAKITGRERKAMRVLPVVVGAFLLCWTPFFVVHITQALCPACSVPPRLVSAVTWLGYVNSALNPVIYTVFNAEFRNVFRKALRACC

D(2) dopamine receptor [4] = biological target: T2, D(2) dopamine receptor
D(2) dopamine receptor [5] = biological target: T2, D(2) dopamine receptor; assay: Intrinsic efficacy at human recombinant D2L receptor expressed in HEK cells assessed as assessed as inhibition of forskolin-induced [3H]cAMP production after 20 mins by […]; format: functional, cell-based; design: scale not given: the % may be the effect or the level left; settings: HEK293
D(3) dopamine receptor [6] = biological target: T1, D(3) dopamine receptor; assay: Partial agonist activity at human recombinant D3 receptor expressed in HEK cells assessed as inhibition of forskolin-induced [3H]cAMP production at 10 times Ki after 20 mins by […]; format: functional, cell-based; settings: HEK293
D(2) dopamine receptor [7] = biological target: T2, D(2) dopamine receptor; assay: Partial agonist activity at human recombinant D2L receptor expressed in HEK cells assessed as inhibition of forskolin-induced [3H]cAMP production at 10 times Ki after 20 mins by […]; format: functional, cell-based; settings: HEK293

T1 sequence (P35462 whole entry): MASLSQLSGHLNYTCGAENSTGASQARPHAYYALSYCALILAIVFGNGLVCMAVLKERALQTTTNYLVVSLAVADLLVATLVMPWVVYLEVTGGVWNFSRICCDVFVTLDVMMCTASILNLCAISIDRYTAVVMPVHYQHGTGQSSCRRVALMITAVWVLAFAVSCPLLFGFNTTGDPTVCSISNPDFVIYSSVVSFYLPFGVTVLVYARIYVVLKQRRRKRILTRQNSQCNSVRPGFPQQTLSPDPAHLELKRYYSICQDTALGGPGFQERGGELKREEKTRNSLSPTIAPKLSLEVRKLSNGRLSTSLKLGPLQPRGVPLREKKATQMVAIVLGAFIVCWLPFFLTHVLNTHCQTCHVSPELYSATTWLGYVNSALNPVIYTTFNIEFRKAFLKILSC
Sigma non-opioid intracellular receptor 1, sequence (Q60492 whole entry): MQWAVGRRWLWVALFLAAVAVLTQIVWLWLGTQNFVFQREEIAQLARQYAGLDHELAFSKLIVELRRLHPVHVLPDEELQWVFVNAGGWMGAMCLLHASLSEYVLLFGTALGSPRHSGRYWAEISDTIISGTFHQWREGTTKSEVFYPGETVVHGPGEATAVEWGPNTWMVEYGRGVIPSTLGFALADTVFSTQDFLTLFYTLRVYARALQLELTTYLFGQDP
T2 sequence (P14416 whole entry): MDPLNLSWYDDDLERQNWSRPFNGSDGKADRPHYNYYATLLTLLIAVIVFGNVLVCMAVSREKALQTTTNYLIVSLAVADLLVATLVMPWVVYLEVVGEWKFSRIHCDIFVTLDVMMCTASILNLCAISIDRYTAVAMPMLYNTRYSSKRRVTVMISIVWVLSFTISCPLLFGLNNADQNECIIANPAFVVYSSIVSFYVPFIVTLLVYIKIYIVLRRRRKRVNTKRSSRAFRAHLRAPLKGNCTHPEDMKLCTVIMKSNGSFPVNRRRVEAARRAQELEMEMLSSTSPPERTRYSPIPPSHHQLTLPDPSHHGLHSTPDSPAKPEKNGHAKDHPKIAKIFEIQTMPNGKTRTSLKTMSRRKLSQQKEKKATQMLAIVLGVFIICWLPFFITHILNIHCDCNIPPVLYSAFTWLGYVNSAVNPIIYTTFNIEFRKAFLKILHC

| Compound | Ki [1] [nM] | Ki (D(3) dopamine receptor [2]) [nM] | Ki (D(2) dopamine receptor [3]) [nM] | Ki (D(4) dopamine receptor) [nM] | Ki (D(2) dopamine receptor [4]) [nM] | Activity (D(2) dopamine receptor [5]) [%] | Activity (D(3) dopamine receptor [6]) | Activity (D(2) dopamine receptor [7]) |
| --- | --- | --- | --- | --- | --- | --- | --- | --- |
| O=C1CCc2ccc(OCCCCN3CCC(O)(c4ccc(Cl)cc4)CC3)cc2N1 | 417 | 1540 | 2600 | 1310 |  |  |  |  |
| COc1ccccc1N1CCN(CCCCOc2ccc3c(c2)NC(=O)CC3)CC1 | 1180 |  |  |  |  |  |  |  |
| CN1CN(c2ccccc2)C2(CCN(CCCCOc3ccc4c(c3)NC(=O)CC4)CC2)C1=O |  | 427 | 611 | 865 |  |  |  |  |
| COc1ccccc1N1CCN(CCCCCOc2ccc3ccc(=O)[nH]c3c2)CC1 | 1610 | 3.8 | 7.4 | 201 |  |  |  |  |
| O=C1CCc2ccc(OCCCCN3CCC(n4c(=O)[nH]c5cc(Cl)ccc54)CC3)cc2N1 |  | 574 | 309 | 1350 |  |  |  |  |
| O=C1CCc2ccc(OCCCCN3CCC(n4c(=O)[nH]c5ccccc54)CC3)cc2N1 |  | 879 | 145 | 1030 |  |  |  |  |
| COc1ccccc1N1CCN(CCCOc2ccc3ccc(=O)[nH]c3c2)CC1 | 2600 | 5.7 | 2.6 | 52.7 |  |  |  |  |

Second part, the compound after the results:

| Ki [1] [nM] | Ki (D(3) dopamine receptor [2]) [nM] | Ki (D(2) dopamine receptor [3]) [nM] | Ki (D(4) dopamine receptor) [nM] | Ki (D(2) dopamine receptor [4]) [nM] | Activity (D(2) dopamine receptor [5]) [%] | Activity (D(3) dopamine receptor [6]) | Activity (D(2) dopamine receptor [7]) | Compound |
| --- | --- | --- | --- | --- | --- | --- | --- | --- |
| 2630 | 5.4 | 0.14 | 30.1 |  |  |  |  | COc1ccccc1N1CCN(CCCCOc2ccc3ccc(=O)[nH]c3c2)CC1 |
| 759 | 7.4 |  | 38.5 | 4.8 |  |  |  | COc1ccccc1N1CCN(CCCOc2ccc3c(c2)NC(=O)CC3)CC1 |
| 13600 | 13.5 | 0.26 | 185 |  | 16 | Active | Active | O=C1CCc2ccc(OCCCCN3CCN(c4ccccc4OCCF)CC3)cc2N1 |
| 1350 |  |  |  |  |  |  |  | COc1ccccc1N1CCN(CCCCCOc2ccc3c(c2)NC(=O)CC3)CC1 |
| 377 | 251 | 4.6 | 27.2 |  |  |  |  | COc1cc(C)ccc1N1CCN(CCCCOc2ccc3c(c2)NC(=O)CC3)CC1 |
| 20900 | 2.7 | 0.07 | 31.9 |  |  |  |  | O=c1ccc2ccc(OCCCCN3CCN(c4ccccc4OCCF)CC3)cc2[nH]1 |
| 620 | 785 | 25.3 | 286 |  |  |  |  | COc1ccc(N2CCN(CCCCOc3ccc4c(c3)NC(=O)CC4)CC2)c(OC)c1 |
| 170 | 930 | 102 | 359 |  |  |  |  | COc1ccc(N2CCN(CCCCOc3ccc4c(c3)NC(=O)CC4)CC2)cc1 |
